Reference: ChEMBL document CHEMBL1212738, “Phenotypic and genotypic characterization of Enterobacteriaceae with decreased susceptibility to carbapenems: results from large hospital-based surveillance studies in China” (2010)
Values after ≈ are worked out from the molar mass of the structure shown.

Assays:
Klebsiella pneumoniae [1] = experiment: Antimicrobial activity against Klebsiella pneumoniae ZJ68T expressing CTX-M-15 by CLSI method; type: functional
Klebsiella pneumoniae [2] = experiment: Antimicrobial activity against carbapenem-resistant Klebsiella pneumoniae GZ83 deficient in SHV-11, CTX-M-14, ompK35/36 by CLSI method; type: functional
Klebsiella pneumoniae [3] = experiment: Antimicrobial activity against carbapenem-resistant Klebsiella pneumoniae PU104 deficient in TEM-1, SHV-11, CTX-M-15, qnrS1, ompK35/36 by CLSI method; type: functional
Escherichia coli [4] = experiment: Antimicrobial activity against carbapenem-resistant Escherichia coli PU101 deficient in TEM-1, CTX-M-14, CMY-2, ompC by CLSI method; type: functional
Escherichia coli [5] = experiment: Antimicrobial activity against Escherichia coli PU102T expressing TEM-1, CTX-M-14, CMY-2 by CLSI method; type: functional
Enterobacter cloacae [6] = experiment: Antimicrobial activity against carbapenem-resistant Enterobacter cloacae GX24 deficient in TEM-1, DHA-1, aac(6')-Ib, ompC by CLSI method; type: functional
Klebsiella aerogenes [7] = experiment: Antimicrobial activity against carbapenem-resistant Enterobacter aerogenes PU41 deficient in CTX-M-14, DHA-1, qnrS1, ompC DEc, ompF by CLSI method; type: functional
Klebsiella aerogenes [8] = experiment: Antimicrobial activity against Enterobacter aerogenes PU41T expressing CTX-M-14, DHA-1, qnrS1 by CLSI method; type: functional
Escherichia coli [9] = experiment: Antimicrobial activity against carbapenem-resistant Escherichia coli HX74 deficient in TEM-1, CTX-M-14, CTX-M-3, aac(6')-Ibcr, ompC/F by CLSI method; type: functional
Escherichia coli [10] = experiment: Antimicrobial activity against Escherichia coli HX74T expressing CTX-M-3 by CLSI method; type: functional
Enterobacter cloacae [11] = experiment: Antimicrobial activity against carbapenem-resistant Enterobacter cloacae GX56 deficient in ompC and expressing low levels of ompF DE by CLSI method; type: functional
Klebsiella aerogenes [12] = experiment: Antimicrobial activity against carbapenem-resistant Enterobacter aerogenes WH85 deficient in TEM-1, CTX-M-3, ompC/F by CLSI method; type: functional
Enterobacter cloacae [13] = experiment: Antimicrobial activity against carbapenem-resistant Enterobacter cloacae NJ89 deficient in CTX-M-14, ompC/F by CLSI method; type: functional
Citrobacter freundii [14] = experiment: Antimicrobial activity against Citrobacter freundii RJ78 expressing CMY-2, qnrA1, aac(6')-Ib-cr, ompC by CLSI method; type: functional
Klebsiella pneumoniae [15] = experiment: Antimicrobial activity against carbapenem-resistant Klebsiella pneumoniae ZJ18 deficient in KPC-2, SHV-28, DHA-1, ompK35 by CLSI method; type: functional
Klebsiella pneumoniae [16] = experiment: Antimicrobial activity against Klebsiella pneumoniae ZJ18T expressing KPC-2, DHA-1 by CLSI method; type: functional
Klebsiella pneumoniae [17] = experiment: Antimicrobial activity against Klebsiella pneumoniae ZJ70T expressing KPC-2 by CLSI method; type: functional
Klebsiella pneumoniae [18] = experiment: Antimicrobial activity against carbapenem-resistant Klebsiella pneumoniae ZJ71 deficient in KPC-2, TEM-1, SHV-11, CTX-M-14, ompK35 by CLSI method; type: functional
Klebsiella pneumoniae [19] = experiment: Antimicrobial activity against Klebsiella pneumoniae ZJ71T expressing KPC-2 by CLSI method; type: functional
Klebsiella pneumoniae [20] = experiment: Antimicrobial activity against Klebsiella pneumoniae ZJ99 expressing KPC-2, CTX-M-3, qnrS1, ompK35 DE by CLSI method; type: functional
Escherichia coli [21] = experiment: Antimicrobial activity against Escherichia coli ZJ86T expressing KPC-2 by CLSI method; type: functional
Escherichia coli [22] = experiment: Antimicrobial activity against Escherichia coli ZJ87 expressing KPC-2, TEM-1, ompC by CLSI method; type: functional
Klebsiella pneumoniae [23] = experiment: Antimicrobial activity against carbapenem-resistant Klebsiella pneumoniae FZ47 deficient in IMP-8, TEM-1, SHV-11, CTX-M-14, qnrB2, aac(6')-Ib, ompK35/36 by CLSI method; type: functional
Klebsiella pneumoniae [24] = experiment: Antimicrobial activity against carbapenem-resistant Klebsiella pneumoniae FZ49 deficient in IMP-8, TEM-1, SHV-11, CTX-M-14, qnrB2, aac(6')-Ib, ompK35/36 by CLSI method; type: functional
Klebsiella pneumoniae [25] = experiment: Antimicrobial activity against Klebsiella pneumoniae GZ64T expressing IMP-4 by CLSI method; type: functional
Klebsiella pneumoniae [26] = experiment: Antimicrobial activity against Klebsiella pneumoniae WH77 expressing IMP-4, TEM-1, SHV-14, CTX-M-3, qnrS1 by CLSI method; type: functional
Citrobacter freundii [27] = experiment: Antimicrobial activity against Citrobacter freundii SZ62 expressing IMP-4, TEM-1, CMY-2, qnrS1, aac(6')-Ib-cr by CLSI method; type: functional
Enterobacter cloacae [28] = experiment: Antimicrobial activity against carbapenem-resistant Enterobacter cloacae SZ92 deficient in IMP-4, TEM-1, CTX-M-14, DHA-1, qnrB10/B4-like, aac(6')-Ib, ompC by CLSI method; type: functional
Enterobacter cloacae [29] = experiment: Antimicrobial activity against carbapenem-resistant Enterobacter cloacae WH103 deficient in IMP-4, TEM-1, CTX-M-3, qnrS1, ompC by CLSI method; type: functional
Escherichia coli [30] = experiment: Antimicrobial activity against Escherichia coli C600 by CLSI method; type: functional
Klebsiella pneumoniae [31] = experiment: Antimicrobial activity against carbapenem-resistant Klebsiella pneumoniae CY1 deficient in SHV-11, DHA-1, ompK35/36 by CLSI method; type: functional
Klebsiella pneumoniae [32] = experiment: Antimicrobial activity against carbapenem-resistant Klebsiella pneumoniae PU4 deficient in SHV-1, DHA-1, ompK35/36 by CLSI method; type: functional
Klebsiella pneumoniae [33] = experiment: Antimicrobial activity against carbapenem-resistant Klebsiella pneumoniae PU5 deficient in SHV-12, DHA-1, aac(6')-Ib-cr, ompK35/36 by CLSI method; type: functional
Klebsiella pneumoniae [34] = experiment: Antimicrobial activity against carbapenem-resistant Klebsiella pneumoniae PU8 deficient in SHV-11, DHA-1, aac(6')-Ib-cr, ompK35/36 by CLSI method; type: functional
Klebsiella pneumoniae [35] = experiment: Antimicrobial activity against carbapenem-resistant Klebsiella pneumoniae PU105 deficient TEM-1, SHV-12, CTX-M-14, DHA-1, qnrB10/B4-like, aac(6')-Ib-cr, ompK35/36 by CLSI method; type: functional
Escherichia coli [36] = experiment: Antimicrobial activity against Escherichia coli C600 transconjugant SZ62T expressing IMP-4, qnrS1by CLSI method
Escherichia coli [37] = experiment: Antimicrobial activity against Escherichia coli C600 transconjugant GZ66T expressing SHV-11, DHA-1 by CLSI method
Klebsiella pneumoniae [38] = experiment: Antimicrobial activity against carbapenem-resistant Klebsiella pneumoniae ZJ68 deficient in CTX-M-15, ompK35/36 by CLSI method
Escherichia coli [39] = experiment: Antimicrobial activity against carbapenem-resistant Escherichia coli ZJ86 expressing KPC-2, TEM-1 with ompC loss by CLSI method
Escherichia coli [40] = experiment: Antimicrobial activity against Escherichia coli C600 transconjugant WH77T expressing IMP-4, TEM-1, CTX-M-3, qnrS1 by CLSI method

SMILES | MIC (Klebsiella pneumoniae [1]) | MIC (Klebsiella pneumoniae [2]) | MIC (Klebsiella pneumoniae [3]) | MIC (Escherichia coli [4]) | MIC (Escherichia coli [5]) | MIC (Enterobacter cloacae [6]) | MIC (Klebsiella aerogenes [7]) | MIC (Klebsiella aerogenes [8]) | MIC (Escherichia coli [9]) | MIC (Escherichia coli [10]) | MIC (Enterobacter cloacae [11]) | MIC (Klebsiella aerogenes [12]) | MIC (Enterobacter cloacae [13]) | MIC (Citrobacter freundii [14]) | MIC (Klebsiella pneumoniae [15]) | MIC (Klebsiella pneumoniae [16]) | MIC (Klebsiella pneumoniae [17]) | MIC (Klebsiella pneumoniae [18]) | MIC (Klebsiella pneumoniae [19]) | MIC (Klebsiella pneumoniae [20]) | also measured
NCC[C@H](O)C(=O)N[C@@H]1C[C@H](N)[C@@H](O[C@H]2O[C@H](CN)[C@@H](O)[C@H](O)[C@H]2O)[C@H](O)[C@H]1O[C@H]1O[C@H](CO)[C@@H](O)[C@H](N)[C@H]1O [AMIKACIN] | > 256 µg/mL | > 256 µg/mL | 0.5 µg/mL (≈ 0.854 µM) | 4 µg/mL (≈ 6.83 µM) | 1 µg/mL (≈ 1.71 µM) | > 256 µg/mL | > 256 µg/mL | > 256 µg/mL | 8 µg/mL (≈ 13.7 µM) | 2 µg/mL (≈ 3.42 µM) | > 256 µg/mL | 1 µg/mL (≈ 1.71 µM) | > 256 µg/mL | 8 µg/mL (≈ 13.7 µM) | > 256 µg/mL | > 256 µg/mL | 1 µg/mL (≈ 1.71 µM) | > 256 µg/mL | 1 µg/mL (≈ 1.71 µM) | 0.5 µg/mL (≈ 0.854 µM) | MIC (Escherichia coli [21]): 32 µg/mL (≈ 54.6 µM); MIC (Escherichia coli [22]): 1 µg/mL (≈ 1.71 µM); MIC (Klebsiella pneumoniae [23]): > 256 µg/mL; MIC (Klebsiella pneumoniae [24]): > 256 µg/mL; MIC (Klebsiella pneumoniae [25]): 1 µg/mL (≈ 1.71 µM); MIC (Klebsiella pneumoniae [26]): 1 µg/mL (≈ 1.71 µM); MIC (Citrobacter freundii [27]): > 256 µg/mL; MIC (Enterobacter cloacae [28]): 1 µg/mL (≈ 1.71 µM); MIC (Enterobacter cloacae [29]): 1 µg/mL (≈ 1.71 µM); MIC (Escherichia coli [30]): 1 µg/mL (≈ 1.71 µM); MIC (Klebsiella pneumoniae [31]): > 256 µg/mL; MIC (Klebsiella pneumoniae [32]): > 256 µg/mL; MIC (Klebsiella pneumoniae [33]): > 256 µg/mL; MIC (Klebsiella pneumoniae [34]): 8 µg/mL (≈ 13.7 µM); MIC (Klebsiella pneumoniae [35]): > 256 µg/mL; MIC (Escherichia coli [36]): 1 µg/mL (≈ 1.71 µM); MIC (Escherichia coli [37]): > 256 µg/mL; MIC (Klebsiella pneumoniae [38]): > 256 µg/mL; MIC (Escherichia coli [39]): 1 µg/mL (≈ 1.71 µM); MIC (Escherichia coli [40]): 1 µg/mL (≈ 1.71 µM)
CO/N=C(\C(=O)N[C@@H]1C(=O)N2C(C(=O)O)=C(COC(C)=O)CS[C@H]12)c1csc(N)n1 [CEFOTAXIME] | > 256 µg/mL | > 256 µg/mL | > 256 µg/mL | > 256 µg/mL | 256 µg/mL (≈ 562 µM) | 256 µg/mL (≈ 562 µM) | > 256 µg/mL | 128 µg/mL (≈ 281 µM) | > 256 µg/mL | > 256 µg/mL | > 256 µg/mL | > 256 µg/mL | > 256 µg/mL | 256 µg/mL (≈ 562 µM) | 128 µg/mL (≈ 281 µM) | 8 µg/mL (≈ 17.6 µM) | 64 µg/mL (≈ 141 µM) | 256 µg/mL (≈ 562 µM) | 16 µg/mL (≈ 35.1 µM) | 128 µg/mL (≈ 281 µM) | MIC (Escherichia coli [21]): 32 µg/mL (≈ 70.3 µM); MIC (Escherichia coli [22]): 64 µg/mL (≈ 141 µM); MIC (Klebsiella pneumoniae [23]): 256 µg/mL (≈ 562 µM); MIC (Klebsiella pneumoniae [24]): > 256 µg/mL; MIC (Klebsiella pneumoniae [25]): 128 µg/mL (≈ 281 µM); MIC (Klebsiella pneumoniae [26]): 256 µg/mL (≈ 562 µM); MIC (Citrobacter freundii [27]): 256 µg/mL (≈ 562 µM); MIC (Enterobacter cloacae [28]): > 256 µg/mL; MIC (Enterobacter cloacae [29]): > 256 µg/mL; MIC (Escherichia coli [30]): 0.13 µg/mL (≈ 0.285 µM); MIC (Klebsiella pneumoniae [31]): 128 µg/mL (≈ 281 µM); MIC (Klebsiella pneumoniae [32]): 16 µg/mL (≈ 35.1 µM); MIC (Klebsiella pneumoniae [33]): > 256 µg/mL; MIC (Klebsiella pneumoniae [34]): 128 µg/mL (≈ 281 µM); MIC (Klebsiella pneumoniae [35]): > 256 µg/mL; MIC (Escherichia coli [36]): 128 µg/mL (≈ 281 µM); MIC (Escherichia coli [37]): 16 µg/mL (≈ 35.1 µM); MIC (Klebsiella pneumoniae [38]): > 256 µg/mL; MIC (Escherichia coli [39]): 64 µg/mL (≈ 141 µM); MIC (Escherichia coli [40]): 256 µg/mL (≈ 562 µM)
